Earlier results, collected in patent US9682081B2, “Pharmaceutical gastro-retentive solid oral dosage form of nilotinib” (SUN PHARMACEUTICAL INDUSTRIES LIMITED, priority 2013, dated 2017).

Tests used:
[1] = 25° C., pH 4.5 and higher
[2] = Class IV means low/moderate aqueous solubility and low permeability

Cc1cn(-c2cc(NC(=O)c3ccc(C)c(Nc4nccc(-c5cccnc5)n4)c3)cc(C(F)(F)F)c2)cn1 [Nilotinib, 4-methyl-N-[3-(4-methyl-1H-imidazol-1-yl)-5-(trifluoromethyl)phenyl]-3-[[4-(3-pyridinyl)-2-pyrimidinyl]amino]-benzamide]
solubility in aqueous solutions [1]: practically insoluble
Biopharmaceutical Classification System (BCS) class [2]: Class IV
